The source made the active and inactive calls. No cut-off for these calls is given here.
Experiments:
HepG2 [1] = test: cells; type: functional, cell-based; details: Homo sapiens, HepG2, 24 h
[2] = target: Histone deacetylase (Homo sapiens) (UniProt Q13547+O15379+Q9UBN7+Q92769+Q9UQL6+Q8WUI4+Q9BY41+Q96DB2+P56524+Q9UKV0+Q969S8); test: Inhibition of HDAC in retinoic acid-differentiated human SH-SY5Y cells assessed as increase in histone H4 acetylation at 1 uM after 24 hrs by Western blot analysis; type: cell-based
HeLa [3] = test: cells; type: functional, cell-based; details: Homo sapiens, 48 h
HepG2 [4] = test: cells; type: functional, cell-based; details: Homo sapiens, HepG2, 72 h
Histone deacetylase 9 = Histone deacetylase 9 (Homo sapiens, UniProt Q9UKV0); test: Inhibition of human recombinant HDAC9 using fluorophore-conjugated substrate Boc-L-Lys(Ac)-AMC after 60 mins
Chain of Histone deacetylase 9 (Q9UKV0 whole entry): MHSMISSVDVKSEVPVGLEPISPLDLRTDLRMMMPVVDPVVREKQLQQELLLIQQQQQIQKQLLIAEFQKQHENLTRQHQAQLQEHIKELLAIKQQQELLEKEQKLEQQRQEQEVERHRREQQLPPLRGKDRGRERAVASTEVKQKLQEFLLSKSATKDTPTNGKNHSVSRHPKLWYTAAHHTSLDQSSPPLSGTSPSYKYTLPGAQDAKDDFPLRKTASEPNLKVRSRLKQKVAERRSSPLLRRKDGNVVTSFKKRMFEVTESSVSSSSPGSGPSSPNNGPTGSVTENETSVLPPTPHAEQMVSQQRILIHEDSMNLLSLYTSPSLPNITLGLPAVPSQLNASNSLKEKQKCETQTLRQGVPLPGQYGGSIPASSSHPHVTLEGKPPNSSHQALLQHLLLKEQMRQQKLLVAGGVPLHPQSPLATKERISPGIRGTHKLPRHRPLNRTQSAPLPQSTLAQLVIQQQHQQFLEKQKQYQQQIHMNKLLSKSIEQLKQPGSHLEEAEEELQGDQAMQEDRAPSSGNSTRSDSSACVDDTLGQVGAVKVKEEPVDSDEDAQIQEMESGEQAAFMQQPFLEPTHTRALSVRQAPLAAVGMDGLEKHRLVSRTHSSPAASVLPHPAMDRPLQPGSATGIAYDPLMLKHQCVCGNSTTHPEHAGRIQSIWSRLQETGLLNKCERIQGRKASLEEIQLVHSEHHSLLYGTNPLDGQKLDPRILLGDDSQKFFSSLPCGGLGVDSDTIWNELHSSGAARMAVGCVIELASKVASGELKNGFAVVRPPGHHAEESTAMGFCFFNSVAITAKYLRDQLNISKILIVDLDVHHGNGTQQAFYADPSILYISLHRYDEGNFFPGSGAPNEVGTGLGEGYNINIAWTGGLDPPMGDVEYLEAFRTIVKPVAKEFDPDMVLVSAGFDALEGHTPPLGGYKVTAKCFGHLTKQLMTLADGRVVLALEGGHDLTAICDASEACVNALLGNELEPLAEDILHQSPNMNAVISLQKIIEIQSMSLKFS

Histone deacetylase 11 = target: T1, Histone deacetylase 11 (Homo sapiens, UniProt Q96DB2); test: Inhibition of human recombinant HDAC11 using fluorophore-conjugated substrate Boc-L-Lys(Ac)-AMC after 60 mins
T1 sequence (Q96DB2 whole entry): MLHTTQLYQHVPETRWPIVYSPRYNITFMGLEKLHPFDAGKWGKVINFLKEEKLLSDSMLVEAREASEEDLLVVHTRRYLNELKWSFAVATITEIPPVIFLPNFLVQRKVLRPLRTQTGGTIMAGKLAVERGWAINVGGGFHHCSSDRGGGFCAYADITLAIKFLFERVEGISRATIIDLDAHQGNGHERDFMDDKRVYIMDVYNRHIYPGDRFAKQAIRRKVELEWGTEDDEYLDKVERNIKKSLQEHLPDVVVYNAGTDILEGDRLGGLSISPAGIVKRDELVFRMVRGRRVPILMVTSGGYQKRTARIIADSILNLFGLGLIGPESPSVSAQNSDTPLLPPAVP

Histone deacetylase 5 = Histone deacetylase 5 (Homo sapiens, UniProt Q9UQL6); test: Inhibition of human recombinant HDAC5 using fluorophore-conjugated substrate Boc-L-Lys(Ac)-AMC after 60 mins
Chain of Histone deacetylase 5 (Q9UQL6 whole entry): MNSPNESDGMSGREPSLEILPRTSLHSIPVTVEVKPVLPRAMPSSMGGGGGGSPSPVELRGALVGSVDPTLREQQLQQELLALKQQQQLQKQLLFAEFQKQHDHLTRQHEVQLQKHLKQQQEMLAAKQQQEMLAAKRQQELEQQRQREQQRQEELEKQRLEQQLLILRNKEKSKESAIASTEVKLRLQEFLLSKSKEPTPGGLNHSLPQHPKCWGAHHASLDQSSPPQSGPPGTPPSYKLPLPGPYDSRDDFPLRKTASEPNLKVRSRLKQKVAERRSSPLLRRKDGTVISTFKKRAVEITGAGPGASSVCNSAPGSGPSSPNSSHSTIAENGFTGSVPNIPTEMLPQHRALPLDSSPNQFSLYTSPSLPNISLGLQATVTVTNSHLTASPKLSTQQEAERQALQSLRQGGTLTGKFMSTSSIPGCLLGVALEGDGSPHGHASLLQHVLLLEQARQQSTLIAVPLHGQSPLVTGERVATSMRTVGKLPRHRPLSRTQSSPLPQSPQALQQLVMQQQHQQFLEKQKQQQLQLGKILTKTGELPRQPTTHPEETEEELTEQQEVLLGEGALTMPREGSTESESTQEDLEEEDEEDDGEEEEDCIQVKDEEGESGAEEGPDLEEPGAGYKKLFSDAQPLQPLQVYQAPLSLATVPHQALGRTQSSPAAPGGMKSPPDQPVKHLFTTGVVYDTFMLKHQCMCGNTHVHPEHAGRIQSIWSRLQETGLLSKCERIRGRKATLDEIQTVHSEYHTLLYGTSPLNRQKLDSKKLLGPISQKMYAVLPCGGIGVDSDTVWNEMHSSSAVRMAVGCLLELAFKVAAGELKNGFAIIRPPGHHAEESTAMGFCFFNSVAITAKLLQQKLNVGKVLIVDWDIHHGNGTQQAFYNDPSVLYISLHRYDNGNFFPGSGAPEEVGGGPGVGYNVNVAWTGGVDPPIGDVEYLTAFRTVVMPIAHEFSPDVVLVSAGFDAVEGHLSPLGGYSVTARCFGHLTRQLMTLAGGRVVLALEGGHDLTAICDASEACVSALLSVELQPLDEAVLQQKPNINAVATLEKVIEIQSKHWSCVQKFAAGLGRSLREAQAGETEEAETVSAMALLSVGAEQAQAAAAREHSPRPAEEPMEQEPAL

Histone deacetylase 1 = Histone deacetylase 1 (Homo sapiens, UniProt Q13547); test: Inhibition of human recombinant HDAC1 using fluorophore-conjugated substrate Boc-L-Lys(Ac)-AMC after 60 mins
Chain of Histone deacetylase 1 (Q13547 whole entry): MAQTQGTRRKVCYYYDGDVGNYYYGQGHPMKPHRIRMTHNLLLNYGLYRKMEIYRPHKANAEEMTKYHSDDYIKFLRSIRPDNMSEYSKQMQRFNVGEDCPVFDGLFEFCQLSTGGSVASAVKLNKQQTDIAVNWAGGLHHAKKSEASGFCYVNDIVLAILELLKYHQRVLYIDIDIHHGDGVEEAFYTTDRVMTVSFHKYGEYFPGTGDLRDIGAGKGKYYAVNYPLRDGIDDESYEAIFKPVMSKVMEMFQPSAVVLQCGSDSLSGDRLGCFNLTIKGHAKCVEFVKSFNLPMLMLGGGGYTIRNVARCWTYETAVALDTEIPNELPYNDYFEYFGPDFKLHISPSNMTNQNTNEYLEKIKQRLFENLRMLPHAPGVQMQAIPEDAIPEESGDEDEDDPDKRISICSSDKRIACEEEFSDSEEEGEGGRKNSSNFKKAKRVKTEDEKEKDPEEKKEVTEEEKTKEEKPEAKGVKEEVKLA

Histone deacetylase 4 = Histone deacetylase 4 (Homo sapiens, UniProt P56524); test: Inhibition of human recombinant HDAC4 using fluorophore-conjugated substrate Boc-L-Lys(Ac)-AMC after 60 mins
Chain of Histone deacetylase 4 (P56524 whole entry): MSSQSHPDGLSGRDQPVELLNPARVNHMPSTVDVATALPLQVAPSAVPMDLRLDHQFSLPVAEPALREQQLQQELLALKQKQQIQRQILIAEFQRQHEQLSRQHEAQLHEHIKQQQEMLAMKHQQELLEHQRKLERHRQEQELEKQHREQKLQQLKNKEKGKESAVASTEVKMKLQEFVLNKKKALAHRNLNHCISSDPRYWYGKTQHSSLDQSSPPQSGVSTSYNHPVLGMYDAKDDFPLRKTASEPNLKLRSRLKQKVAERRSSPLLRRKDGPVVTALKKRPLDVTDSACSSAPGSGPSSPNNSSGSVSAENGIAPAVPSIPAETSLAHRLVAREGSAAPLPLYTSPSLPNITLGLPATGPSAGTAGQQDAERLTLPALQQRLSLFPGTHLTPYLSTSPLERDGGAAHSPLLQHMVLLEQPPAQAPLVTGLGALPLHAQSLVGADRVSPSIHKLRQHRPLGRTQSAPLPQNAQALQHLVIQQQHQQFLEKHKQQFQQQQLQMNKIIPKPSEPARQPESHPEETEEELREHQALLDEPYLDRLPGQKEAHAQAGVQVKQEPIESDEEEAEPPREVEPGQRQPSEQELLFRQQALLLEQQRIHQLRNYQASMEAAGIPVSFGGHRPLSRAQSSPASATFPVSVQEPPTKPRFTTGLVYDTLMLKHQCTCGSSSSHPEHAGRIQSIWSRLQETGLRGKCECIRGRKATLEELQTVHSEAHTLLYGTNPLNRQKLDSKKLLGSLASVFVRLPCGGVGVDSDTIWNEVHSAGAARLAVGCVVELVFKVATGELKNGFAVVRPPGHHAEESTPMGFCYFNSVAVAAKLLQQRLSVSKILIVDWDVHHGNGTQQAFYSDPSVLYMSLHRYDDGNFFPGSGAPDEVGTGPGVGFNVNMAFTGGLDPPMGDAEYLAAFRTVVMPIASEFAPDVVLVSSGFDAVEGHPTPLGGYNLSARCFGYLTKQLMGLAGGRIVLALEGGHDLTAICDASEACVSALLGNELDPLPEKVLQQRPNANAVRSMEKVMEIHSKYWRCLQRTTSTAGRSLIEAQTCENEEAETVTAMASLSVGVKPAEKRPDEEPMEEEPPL

HeLa [5] = test: cells; type: functional, cell-based; details: Homo sapiens, 24 h
SH-SY5Y [6] = test: cells; type: functional, cell-based; details: Homo sapiens, 48 h
HepG2 [7] = test: cells; type: functional, cell-based; details: Homo sapiens, HepG2, 48 h
[8] = target: T2, Polyamine deacetylase HDAC10 (Homo sapiens, UniProt Q969S8); test: Inhibition of human recombinant HDAC10 using fluorophore-conjugated substrate Boc-L-Lys(Ac)-AMC after 60 mins
T2 sequence (Q969S8 whole entry): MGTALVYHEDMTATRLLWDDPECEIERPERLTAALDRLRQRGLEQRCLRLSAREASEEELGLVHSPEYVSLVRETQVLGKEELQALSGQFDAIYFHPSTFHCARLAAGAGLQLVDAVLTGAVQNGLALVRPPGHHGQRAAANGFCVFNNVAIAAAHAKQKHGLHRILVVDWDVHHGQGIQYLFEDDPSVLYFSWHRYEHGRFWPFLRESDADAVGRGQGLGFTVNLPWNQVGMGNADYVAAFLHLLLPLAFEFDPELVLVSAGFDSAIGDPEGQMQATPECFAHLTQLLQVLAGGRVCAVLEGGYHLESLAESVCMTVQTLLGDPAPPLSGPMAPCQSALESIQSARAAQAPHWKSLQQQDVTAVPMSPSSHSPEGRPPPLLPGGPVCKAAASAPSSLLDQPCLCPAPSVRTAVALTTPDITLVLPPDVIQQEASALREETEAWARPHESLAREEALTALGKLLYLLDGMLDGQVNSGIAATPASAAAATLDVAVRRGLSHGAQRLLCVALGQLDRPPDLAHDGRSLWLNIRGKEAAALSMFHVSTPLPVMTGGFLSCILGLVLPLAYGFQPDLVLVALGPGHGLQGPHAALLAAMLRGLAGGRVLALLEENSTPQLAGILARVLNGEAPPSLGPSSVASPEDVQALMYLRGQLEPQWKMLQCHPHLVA

SH-SY5Y [9] = test: cells; type: functional, cell-based; details: Homo sapiens, 72 h

Row | EC50 (HepG2 [1]) [µM] | inhibition [2] | EC50 (HeLa [3]) [µM] | EC50 (HepG2 [4]) [µM] | IC50 (Histone deacetylase 9) [µM] | IC50 (Histone deacetylase 11) [µM] | IC50 (Histone deacetylase 5) [µM] | IC50 (Histone deacetylase 1) [µM] | IC50 (Histone deacetylase 4) [µM] | EC50 (HeLa [5]) [µM] | EC50 (SH-SY5Y [6]) [µM] | EC50 (HepG2 [7]) [µM] | IC50 [8] [µM] | EC50 (SH-SY5Y [9]) [µM] | SMILES
1 | > 50 | Active | 23.7 | 13.4 | 0.704 | 0.476 | 0.892 | 0.0991 | 0.379 | 30.6 | 35.9 | 24.3 | 0.14 | 20.8 | [N-]=[N+]=NCc1cc(Cn2cc(NC(=O)CCCCCCC(=O)NO)cn2)cc(N=[N+]=[N-])c1
2 | > 50 | Active | 10.7 | 4.9 | 0.0378 | 0.116 | 0.932 | 0.0822 | 0.432 | 26.5 | 32.2 | 11.5 | 0.776 | 23 | [N-]=[N+]=NCc1cc(N=[N+]=[N-])cc(C(=O)Nc2ccc(-c3cc(C(=O)NCCCCCCC(=O)NO)no3)cc2)c1

Reference: ChEMBL document CHEMBL1914352, “Design, synthesis, docking, and biological evaluation of novel diazide-containing isoxazole- and pyrazole-based histone deacetylase probes” (J Med Chem, 2011)
